The kinase profiling compilation of Christmann-Franck et al. (2016)

Key:
Conditions in all cases: compound 10.0 µM
[1] = biological target: NEK6 (human) (UniProt Q9HC98)
[2] = biological target: TXK (human) (UniProt P42681)
[3] = biological target: RIOK2 (human) (UniProt Q9BVS4)
[4] = biological target: TNK1 (human) (UniProt Q13470)
[5] = biological target: CHUK (human) (UniProt O15111)
[6] = biological target: PRKAA2 (human) (UniProt P54646)
[7] = biological target: CDC42BPA (human) (UniProt Q5VT25)
[8] = biological target: CLK4 (human) (UniProt Q9HAZ1)
[9] = biological target: PTK2 (human) (UniProt Q05397)
[10] = biological target: EPHB1 (human) (UniProt P54762)
[11] = biological target: EPHA4 (human) (UniProt P54764)
EPHA4 (human), sequence (P54764 whole entry, looked up): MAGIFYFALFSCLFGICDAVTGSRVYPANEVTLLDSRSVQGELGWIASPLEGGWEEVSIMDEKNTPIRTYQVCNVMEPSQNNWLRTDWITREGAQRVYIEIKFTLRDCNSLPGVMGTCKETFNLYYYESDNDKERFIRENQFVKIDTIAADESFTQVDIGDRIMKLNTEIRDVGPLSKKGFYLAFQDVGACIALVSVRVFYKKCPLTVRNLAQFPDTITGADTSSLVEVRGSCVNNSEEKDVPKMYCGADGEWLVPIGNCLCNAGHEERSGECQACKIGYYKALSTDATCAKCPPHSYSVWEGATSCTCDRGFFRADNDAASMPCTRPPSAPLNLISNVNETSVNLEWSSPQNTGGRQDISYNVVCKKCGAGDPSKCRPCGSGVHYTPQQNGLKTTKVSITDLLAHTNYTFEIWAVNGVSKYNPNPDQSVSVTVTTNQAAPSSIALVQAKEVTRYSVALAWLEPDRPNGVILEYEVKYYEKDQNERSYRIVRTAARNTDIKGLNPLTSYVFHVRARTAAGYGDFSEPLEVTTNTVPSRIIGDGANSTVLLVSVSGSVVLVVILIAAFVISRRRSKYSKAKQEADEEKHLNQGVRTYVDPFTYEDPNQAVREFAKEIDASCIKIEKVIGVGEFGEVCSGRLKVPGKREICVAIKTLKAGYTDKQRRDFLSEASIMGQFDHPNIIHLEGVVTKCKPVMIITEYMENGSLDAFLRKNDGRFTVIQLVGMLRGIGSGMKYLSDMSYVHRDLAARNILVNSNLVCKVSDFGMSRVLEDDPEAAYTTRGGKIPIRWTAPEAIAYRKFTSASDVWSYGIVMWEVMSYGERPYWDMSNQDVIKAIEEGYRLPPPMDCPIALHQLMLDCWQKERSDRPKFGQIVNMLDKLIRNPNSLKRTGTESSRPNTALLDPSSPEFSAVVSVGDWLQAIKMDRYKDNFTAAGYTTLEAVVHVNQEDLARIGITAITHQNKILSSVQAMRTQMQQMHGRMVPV

[12] = biological target: MYO3A (human) (UniProt Q8NEV4)
[13] = biological target: EPHB2 (human) (UniProt P29323)
EPHB2 (human), sequence (P29323 whole entry, looked up): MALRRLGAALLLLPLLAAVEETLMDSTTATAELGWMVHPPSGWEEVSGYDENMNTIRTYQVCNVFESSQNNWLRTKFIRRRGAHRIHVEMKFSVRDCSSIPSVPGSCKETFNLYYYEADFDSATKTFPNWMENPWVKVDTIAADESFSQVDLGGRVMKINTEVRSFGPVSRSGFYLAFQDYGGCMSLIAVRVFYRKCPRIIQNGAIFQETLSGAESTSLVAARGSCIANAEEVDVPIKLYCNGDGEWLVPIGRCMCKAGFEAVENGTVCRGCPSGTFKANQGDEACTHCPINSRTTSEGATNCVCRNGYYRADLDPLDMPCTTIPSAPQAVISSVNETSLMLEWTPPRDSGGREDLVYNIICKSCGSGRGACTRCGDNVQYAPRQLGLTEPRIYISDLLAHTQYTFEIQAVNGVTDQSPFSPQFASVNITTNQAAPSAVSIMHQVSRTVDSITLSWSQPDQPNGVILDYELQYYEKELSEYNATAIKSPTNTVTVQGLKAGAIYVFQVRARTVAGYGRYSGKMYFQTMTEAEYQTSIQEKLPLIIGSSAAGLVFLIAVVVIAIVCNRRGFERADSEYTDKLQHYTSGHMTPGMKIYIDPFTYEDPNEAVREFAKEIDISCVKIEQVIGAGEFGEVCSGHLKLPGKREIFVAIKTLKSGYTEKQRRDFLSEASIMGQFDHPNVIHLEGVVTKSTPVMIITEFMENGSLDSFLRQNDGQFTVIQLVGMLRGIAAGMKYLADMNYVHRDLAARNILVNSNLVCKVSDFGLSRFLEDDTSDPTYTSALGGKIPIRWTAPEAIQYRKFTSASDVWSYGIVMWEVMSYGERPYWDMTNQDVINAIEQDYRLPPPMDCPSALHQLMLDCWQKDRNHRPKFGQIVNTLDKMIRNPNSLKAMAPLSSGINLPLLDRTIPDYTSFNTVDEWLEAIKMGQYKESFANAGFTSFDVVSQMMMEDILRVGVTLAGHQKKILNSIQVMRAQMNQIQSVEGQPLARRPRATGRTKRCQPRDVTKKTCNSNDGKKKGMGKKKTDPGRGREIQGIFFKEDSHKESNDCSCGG

[14] = biological target: BRSK2 (human) (UniProt Q8IWQ3)
[15] = biological target: MAP3K7 (human) (UniProt O43318)
[16] = biological target: CDK9 (human) (UniProt P50750)
[17] = biological target: GAK (human) (UniProt O14976)
[18] = biological target: JAK1 JH1 catalytic (human) (UniProt P23458)
[19] = biological target: ACVR1B (human) (UniProt P36896)
[20] = biological target: TGFBR2 (human) (UniProt P37173)
[21] = biological target: MAPK4 (human) (UniProt P31152)
[22] = biological target: PAK3 (human) (UniProt O75914)
[23] = biological target: RPS6KA1 KD2 (human) (UniProt Q15418)
[24] = biological target: RPS6KA2 KD1 (human) (UniProt Q15349)
RPS6KA2 KD1 (human), sequence (Q15349 whole entry, looked up): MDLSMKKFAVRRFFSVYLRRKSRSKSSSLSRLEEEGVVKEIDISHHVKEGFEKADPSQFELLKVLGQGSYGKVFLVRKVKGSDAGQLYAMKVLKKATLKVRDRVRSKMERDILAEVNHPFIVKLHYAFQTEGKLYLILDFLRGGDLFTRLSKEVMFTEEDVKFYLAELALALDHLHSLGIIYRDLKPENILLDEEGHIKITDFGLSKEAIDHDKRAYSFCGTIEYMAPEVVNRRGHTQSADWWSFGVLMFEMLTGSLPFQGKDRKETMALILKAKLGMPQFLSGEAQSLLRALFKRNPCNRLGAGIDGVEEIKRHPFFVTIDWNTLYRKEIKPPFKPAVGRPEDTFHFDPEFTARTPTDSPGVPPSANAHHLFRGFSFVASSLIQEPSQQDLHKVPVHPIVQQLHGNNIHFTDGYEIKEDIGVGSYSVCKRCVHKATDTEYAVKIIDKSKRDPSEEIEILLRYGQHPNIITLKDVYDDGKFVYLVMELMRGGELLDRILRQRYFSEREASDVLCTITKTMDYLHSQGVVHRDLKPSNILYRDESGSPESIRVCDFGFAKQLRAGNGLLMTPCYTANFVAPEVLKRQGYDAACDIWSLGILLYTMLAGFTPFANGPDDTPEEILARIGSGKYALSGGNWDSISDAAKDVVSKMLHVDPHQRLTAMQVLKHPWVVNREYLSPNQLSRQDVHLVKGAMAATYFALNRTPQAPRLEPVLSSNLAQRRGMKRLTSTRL

[25] = biological target: DAPK3 (human) (UniProt O43293)
[26] = biological target: PAK4 (human) (UniProt O96013)
[27] = system: KIT (human), P10721 [V559D/T670I]
[28] = biological target: CaMK1 (human) (UniProt Q14012)
[29] = biological target: LIMK1 (human) (UniProt P53667)
[30] = biological target: MAP4K2 (human) (UniProt Q12851)
[31] = biological target: CRK2 (P.falciparum) (UniProt P61075)
CRK2 (P.falciparum), sequence (P61075 whole entry, looked up): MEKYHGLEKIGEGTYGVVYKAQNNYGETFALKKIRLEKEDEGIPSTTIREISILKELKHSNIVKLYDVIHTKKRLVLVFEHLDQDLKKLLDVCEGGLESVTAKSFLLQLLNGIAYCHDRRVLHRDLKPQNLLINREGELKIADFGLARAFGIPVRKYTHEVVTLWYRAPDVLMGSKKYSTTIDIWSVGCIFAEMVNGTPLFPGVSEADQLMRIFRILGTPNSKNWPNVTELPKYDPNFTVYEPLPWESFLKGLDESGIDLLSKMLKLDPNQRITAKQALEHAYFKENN

[32] = biological target: SGK110 (human) (UniProt P0C264)
SGK110 (human), sequence (P0C264 whole entry, looked up): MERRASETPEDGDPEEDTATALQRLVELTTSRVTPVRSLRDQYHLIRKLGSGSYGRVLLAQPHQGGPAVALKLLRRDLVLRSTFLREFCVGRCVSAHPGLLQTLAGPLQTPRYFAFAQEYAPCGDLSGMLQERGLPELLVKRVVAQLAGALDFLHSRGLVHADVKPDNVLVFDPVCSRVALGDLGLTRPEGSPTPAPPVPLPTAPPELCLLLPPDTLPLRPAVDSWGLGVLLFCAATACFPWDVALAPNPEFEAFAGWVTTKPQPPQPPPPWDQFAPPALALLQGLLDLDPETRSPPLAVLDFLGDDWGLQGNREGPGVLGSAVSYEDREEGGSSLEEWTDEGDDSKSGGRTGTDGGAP

[33] = biological target: HCK (human) (UniProt P08631)
[34] = biological target: ADCK3 (human) (UniProt Q8NI60)
ADCK3 (human), sequence (Q8NI60 whole entry, looked up): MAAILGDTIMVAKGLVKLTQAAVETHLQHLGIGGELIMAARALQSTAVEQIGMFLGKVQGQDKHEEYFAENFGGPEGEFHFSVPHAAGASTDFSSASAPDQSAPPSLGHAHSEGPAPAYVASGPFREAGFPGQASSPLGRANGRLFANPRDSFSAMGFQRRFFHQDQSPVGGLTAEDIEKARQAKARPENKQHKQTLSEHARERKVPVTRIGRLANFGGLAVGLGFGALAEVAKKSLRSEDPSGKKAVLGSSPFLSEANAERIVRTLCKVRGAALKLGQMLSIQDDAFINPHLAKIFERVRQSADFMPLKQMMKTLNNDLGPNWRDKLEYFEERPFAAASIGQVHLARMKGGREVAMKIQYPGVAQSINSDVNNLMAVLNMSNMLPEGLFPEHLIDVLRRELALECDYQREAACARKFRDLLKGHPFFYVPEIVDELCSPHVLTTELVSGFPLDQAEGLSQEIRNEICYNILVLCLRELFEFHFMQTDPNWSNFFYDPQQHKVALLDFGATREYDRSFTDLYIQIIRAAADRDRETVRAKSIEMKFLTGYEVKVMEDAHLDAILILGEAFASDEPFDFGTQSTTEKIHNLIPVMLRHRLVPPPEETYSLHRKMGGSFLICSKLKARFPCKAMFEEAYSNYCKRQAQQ

[35] = biological target: EPHA7 (human) (UniProt Q15375)
EPHA7 (human), sequence (Q15375 whole entry, looked up): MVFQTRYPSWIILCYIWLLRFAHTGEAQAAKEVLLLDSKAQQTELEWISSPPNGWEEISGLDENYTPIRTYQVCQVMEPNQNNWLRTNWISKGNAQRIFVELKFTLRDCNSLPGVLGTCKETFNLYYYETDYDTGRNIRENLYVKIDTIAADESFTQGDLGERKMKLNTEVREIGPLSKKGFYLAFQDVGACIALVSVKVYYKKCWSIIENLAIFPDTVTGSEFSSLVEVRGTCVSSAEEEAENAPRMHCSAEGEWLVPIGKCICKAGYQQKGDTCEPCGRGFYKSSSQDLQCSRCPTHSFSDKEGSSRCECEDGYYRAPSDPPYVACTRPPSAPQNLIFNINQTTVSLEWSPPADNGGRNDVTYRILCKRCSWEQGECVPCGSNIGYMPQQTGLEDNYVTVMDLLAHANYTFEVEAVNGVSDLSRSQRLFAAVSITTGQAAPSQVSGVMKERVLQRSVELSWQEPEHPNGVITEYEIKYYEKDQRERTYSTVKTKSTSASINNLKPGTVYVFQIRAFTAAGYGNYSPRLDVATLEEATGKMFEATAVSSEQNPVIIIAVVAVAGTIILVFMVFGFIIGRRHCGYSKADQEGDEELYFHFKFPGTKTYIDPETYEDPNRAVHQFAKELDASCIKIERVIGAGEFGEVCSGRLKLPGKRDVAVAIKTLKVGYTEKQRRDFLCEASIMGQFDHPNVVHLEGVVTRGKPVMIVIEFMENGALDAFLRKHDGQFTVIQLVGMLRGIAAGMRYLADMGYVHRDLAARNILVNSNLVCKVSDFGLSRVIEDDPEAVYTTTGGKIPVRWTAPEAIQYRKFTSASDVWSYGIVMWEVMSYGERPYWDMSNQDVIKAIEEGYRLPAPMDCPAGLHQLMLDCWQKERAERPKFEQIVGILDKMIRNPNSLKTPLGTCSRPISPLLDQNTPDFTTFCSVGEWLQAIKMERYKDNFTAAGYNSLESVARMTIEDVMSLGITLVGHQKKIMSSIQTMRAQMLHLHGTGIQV

[36] = biological target: JAK3 JH1 catalytic (human) (UniProt P52333)
[37] = biological target: ALK (human) (UniProt Q9UM73)
[38] = biological target: NUAK2 (human) (UniProt Q9H093)
[39] = biological target: DSTYK (human) (UniProt Q6XUX3)
[40] = system: FLT3 (human), P36888 [K663Q]
[41] = biological target: HIPK4 (human) (UniProt Q8NE63)

In the case of `CNC(=O)c1cc(Oc2ccc(NC(=O)Nc3ccc(Cl)c(C(F)(F)F)c3)cc2)ccn1`, the per cent of control [1] was 100%, the per cent of control [2] was 98% and the per cent of control [3] was 48%. For the same molecule, the per cent of control [4] was 14%, the per cent of control [5] was 93% and the per cent of control [6] was 60%. It also gave a per cent of control [7] of 96%, a per cent of control [8] of 30% and a per cent of control [9] of 100%. For the same molecule, the per cent of control [10] was 18%, the per cent of control [11] was 15% and the per cent of control [12] was 44%. The per cent of control [13] was 12%, the per cent of control [14] was 98% and the per cent of control [15] was 2.6%. It also gave a per cent of control [16] of 62%, a per cent of control [17] of 62% and a per cent of control [18] of 42%. The per cent of control [19] was 56%, the per cent of control [20] was 25% and the per cent of control [21] was 79%. The per cent of control [22] was 56%, the per cent of control [23] was 77% and the per cent of control [24] was 61%. For the same molecule, the per cent of control [25] was 94%, the per cent of control [26] was 100% and the per cent of control [27] was 0%. The per cent of control [28] was 87%, the per cent of control [29] was 7.6% and the per cent of control [30] was 93%. It also gave a per cent of control [31] of 59%, a per cent of control [32] of 91% and a per cent of control [33] of 14%. The per cent of control [34] was 90%, the per cent of control [35] was 7.6% and the per cent of control [36] was 100%. It also gave a per cent of control [37] of 100%, a per cent of control [38] of 100% and a per cent of control [39] of 100%. For the same molecule, the per cent of control [40] was 0.25% and the per cent of control [41] was 4.5%.
`CNC(=O)c1cc(Oc2ccc(NC(=O)Nc3ccc(Cl)c(C(F)(F)F)c3)cc2)cc[n+]1[O-]` gave a per cent of control [1] of 100%, a per cent of control [2] of 78% and a per cent of control [3] of 42%. The per cent of control [4] was 6.6%, the per cent of control [5] was 6.5% and the per cent of control [6] was 49%. For the same molecule, the per cent of control [7] was 90%, the per cent of control [8] was 47% and the per cent of control [9] was 97%. It also gave a per cent of control [10] of 20%, a per cent of control [11] of 13% and a per cent of control [12] of 14%. For the same molecule, the per cent of control [13] was 19%, the per cent of control [14] was 100% and the per cent of control [15] was 2.9%. It also gave a per cent of control [16] of 73%, a per cent of control [17] of 70% and a per cent of control [18] of 50%. The per cent of control [19] was 44%, the per cent of control [20] was 3.1% and the per cent of control [21] was 78%. The per cent of control [22] was 43%, the per cent of control [23] was 58% and the per cent of control [24] was 43%. It also gave a per cent of control [25] of 100%, a per cent of control [26] of 100% and a per cent of control [27] of 0%. It also gave a per cent of control [28] of 58%, a per cent of control [29] of 8.5% and a per cent of control [30] of 66%. It also gave a per cent of control [31] of 100%, a per cent of control [32] of 100% and a per cent of control [33] of 8.8%. For the same molecule, the per cent of control [34] was 86%, the per cent of control [35] was 33% and the per cent of control [36] was 78%. For the same molecule, the per cent of control [37] was 94%, the per cent of control [38] was 85% and the per cent of control [39] was 68%. It also gave a per cent of control [40] of 0.2% and a per cent of control [41] of 2.3%.
